Drawing on ChEMBL document CHEMBL1150068, “Antimalarial activity of sesquiterpenes from the marine sponge Acanthella klethra” (J Nat Prod, 1992), this text covers IC50 for eight compounds.

SMILES strings stand for the structures. ≈ marks a conversion by molar mass, not a printed value.

Experiment [1] has as its system Plasmodium falciparum. The experiment can be described thus: Antimalarial activity against chloroquine-resistant Plasmodium falciparum W2. Type of experiment: functional, organism-based.
A further experiment concerns KB. Description: Cytotoxicity against human KB cells. Type of experiment: cell-based.
Experiment [2] has as its system Plasmodium falciparum. The experiment can be described thus: Antimalarial activity against chloroquine-sensitive Plasmodium falciparum D6. It is filed as functional, organism-based.

In the case of `C=C(C)[C@@H]1CC[C@@]2(C)CCC[C@@](C)(N=C=S)[C@@H]2C1`, the figures for the IC50 in the experiment on Plasmodium falciparum [1], with KB and with Plasmodium falciparum [2] were above 10 µg/mL, above 20 µg/mL and above 10 µg/mL, respectively.

With `CC1=C[C@]2(CC1)[C@H](C)CC[C@@H](C(C)C)[C@H]2N=C=S`, the IC50 in the experiment with Plasmodium falciparum [1] is 3.11 µg/mL (≈ 11.8 µM); in the experiment on KB it was above 20 µg/mL; with Plasmodium falciparum [2], 12.3 µg/mL (≈ 46.8 µM).

Turning to `C[C@H]1CCC[C@]2(C)CC[C@H](C(C)(C)N=C=S)C=C12`, the IC50 was 0.61 µg/mL (≈ 2.32 µM) with Plasmodium falciparum [1], above 20 µg/mL in the experiment on KB and 2.24 µg/mL (≈ 8.5 µM) in the experiment on Plasmodium falciparum [2].

As to `C=C(C)[C@H]1CC[C@@]2(C)CCC[C@@](C)(N=C=S)[C@@H]2C1`, the IC50 in the experiment with Plasmodium falciparum [1] was 0.55 µg/mL (≈ 2.09 µM); in the experiment with KB, above 20 µg/mL; in the experiment with Plasmodium falciparum [2], 4 µg/mL (≈ 15.2 µM).

Consider `C[C@@H]1CC[C@H]2[C@@H](C)C(=O)O[C@@H]3O[C@@]4(C)CC[C@@H]1[C@]32OO4` [ARTEMISININ], for which the IC50 was 0.00071 µg/mL (≈ 0.00251 µM) with Plasmodium falciparum [1], above 20 µg/mL in the experiment with KB and 0.0041 µg/mL (≈ 0.0145 µM) with Plasmodium falciparum [2].

As for `[C-]#[N+][C@@H]1[C@H](C(C)C)CC[C@@H](C)[C@@]12C=C(C)CC2` [AXISONITRILE 3], the IC50 was 0.0165 µg/mL (≈ 0.0713 µM) with Plasmodium falciparum [1], above 20 µg/mL with KB and 0.142 µg/mL (≈ 0.614 µM) with Plasmodium falciparum [2].

Take `OC(c1cc(C(F)(F)F)nc2c(C(F)(F)F)cccc12)C1CCCCN1` (stereo not drawn) [MEFLOQUINE]: the IC50 in the experiment on Plasmodium falciparum [1] came out at 0.00049 µg/mL (≈ 0.0013 µM); in the experiment with Plasmodium falciparum [2], 0.0082 µg/mL (≈ 0.0217 µM).

As to `C=C[C@H]1CN2CC[C@H]1C[C@H]2[C@H](O)c1ccnc2ccc(OC)cc12` [QUININE], the IC50 in the experiment on Plasmodium falciparum [1] is 0.0238 µg/mL (≈ 0.0734 µM); with KB, above 20 µg/mL; with Plasmodium falciparum [2], 0.0102 µg/mL (≈ 0.0314 µM).

One may read the IC50 as the concentration that gives 50% inhibition. High values mean weaker potency in that assay, low ones greater potency in that assay.
